Test results published in patent US20170190671A1, “BIS(ARYL)CATECHOL DERIVATIVES AS HERBICIDES” (E I DU PONT DE NEMOURS AND COMPANY, priority 2014, published 2017).

Legend:
[1] = test system: Italian ryegrass (Lolium multiflorum); test: Test C preemergence; format: in vivo; details: Lolium multiflorum, pre-emergence, 336 h, scale 0 to 100, read-out: Plant response rating, Ryegrass, Italian
How it was run: (§1)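 Seeded loam-sand soil (preemergence) or young potted plants of 2-18 cm (postemergence) received test chemical formulated with surfactant in a non-phytotoxic solvent. Pots were kept in the greenhouse for 13-15 days before a visual 0-100 control rating relative to controls.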

[2] = test system: barnyardgrass (Echinochloa crus-galli); test: Test C preemergence; format: in vivo; details: Echinochloa crus-galli, pre-emergence, read-out: Plant response rating, Barnyardgrass
How it was run: as §1

[3] = test system: blackgrass (Alopecurus myosuroides); test: Test C preemergence; format: in vivo; details: Alopecurus myosuroides, pre-emergence, 336 h, scale 0 to 100, read-out: Plant response rating, Blackgrass
How it was run: as §1

[4] = test system: corn (Zea mays); test: Test C preemergence; format: in vivo; details: Zea mays, pre-emergence, 336 h, scale 0 to 100
How it was run: as §1

[5] = test system: galium (catchweed bedstraw, Galium aparine); test: Test C preemergence; format: in vivo; details: Galium, pre-emergence, 336 h, scale 0 to 100, read-out: Plant response rating, Galium
How it was run: as §1

[6] = test system: johnsongrass (Sorghum halepense); test: Test C preemergence; format: in vivo; details: Sorghum halepense, pre-emergence, 336 h, scale 0 to 100, read-out: Plant response rating, Johnsongrass
How it was run: as §1

[7] = test system: lambsquarters (Chenopodium album); test: Test C preemergence; format: in vivo; details: Chenopodium album, pre-emergence, 336 h, scale 0 to 100, read-out: Plant response rating, Lambsquarters
How it was run: as §1

[8] = test system: morningglory (Ipomoea coccinea); test: Test C preemergence; format: in vivo; details: Ipomoea, pre-emergence, 336 h, scale 0 to 100, read-out: Plant response rating, Morningglory
How it was run: as §1

[9] = test system: pigweed (Amaranthus retroflexus); test: Test C preemergence; format: in vivo; details: Amaranthus retroflexus, pre-emergence, 336 h, scale 0 to 100, read-out: Plant response rating, Pigweed
How it was run: as §1

[10] = test system: ragweed (common ragweed, Ambrosia elatior); test: Test C preemergence; format: in vivo; details: Ambrosia artemisiifolia, pre-emergence, 336 h, scale 0 to 100, read-out: Plant response rating, Ragweed
How it was run: as §1

[11] = test system: soybean (Glycine max); test: Test C preemergence; format: in vivo; details: Glycine max, pre-emergence, scale 0 to 100, read-out: Plant response rating, Soybean
How it was run: as §1

[12] = test system: velvetleaf (Abutilon theophrasti); test: Test C preemergence; format: in vivo; details: Abutilon theophrasti, pre-emergence, scale 0 to 100, read-out: Plant response rating, Velvetleaf
How it was run: as §1

[13] = test system: waterhemp (common waterhemp, Amaranthus rudis); test: Test C preemergence; format: in vivo; details: Amaranthus tuberculatus, pre-emergence, scale 0 to 100, read-out: Plant response rating, Waterhemp
How it was run: as §1

[14] = test system: yellow nutsedge (Cyperus esculentus); test: Test C preemergence; format: in vivo; details: Cyperus, pre-emergence, 336 h, scale 0 to 100, read-out: Plant response rating, Nutsedge, Yellow
How it was run: as §1

melting point: 158 to 161 °C
SMILES: Fc1cnc(Oc2c(F)ccc(F)c2Oc2ncc(F)cn2)nc1 [Compound 29, 2,2′-[(3,6-difluoro-1,2-phenylene)bis(oxy)]bis[5-fluoropyrimidine]]
pest or weed control at 31 g/ha ([1]; 31 g ai/ha, preemergence): 15% | pest or weed control at 62 g/ha ([1]; 62 g ai/ha, preemergence): 50% | pest or weed control at 125 g/ha ([1]; 125 g ai/ha, preemergence): 60% | pest or weed control at 16 g/ha ([1]; Preemergence, 16 g ai/ha): 30% | pest or weed control at 31 g/ha ([2]; 31 g ai/ha, preemergence, scale 0 to 100): 75% | pest or weed control at 62 g/ha ([2]; 62 g ai/ha, preemergence, scale 0 to 100): 98% | pest or weed control at 125 g/ha ([2]; 125 g ai/ha, preemergence, scale 0 to 100): 100% | pest or weed control at 16 g/ha ([2]; Preemergence, 16 g ai/ha, scale 0 to 100 (0 no effect, 100 complete control)): 25% | pest or weed control at 31 g/ha ([3]; 31 g ai/ha, preemergence): 90% | pest or weed control at 62 g/ha ([3]; 62 g ai/ha, preemergence): 90% | pest or weed control at 125 g/ha ([3]; 125 g ai/ha, preemergence): 90% | pest or weed control at 16 g/ha ([3]; Preemergence, 16 g ai/ha): 60% | Corn plant response rating (crop injury, 0 = no effect, 100 = complete kill) at 31 g/ha ([4]; 31 g ai/ha, preemergence): 15% | Corn plant response rating (crop injury, 0 = no effect, 100 = complete kill) at 62 g/ha ([4]; 62 g ai/ha, preemergence): 25% | Corn plant response rating (crop injury, 0 = no effect, 100 = complete kill) at 125 g/ha ([4]; 125 g ai/ha, preemergence): 65% | Corn plant response rating (crop injury, 0 = no effect, 100 = complete kill) at 16 g/ha ([4]; Preemergence, 16 g ai/ha): 0% | pest or weed control at 31 g/ha ([5]; 31 g ai/ha, preemergence): 100% | pest or weed control at 62 g/ha ([5]; 62 g ai/ha, preemergence): 100% | pest or weed control at 125 g/ha ([5]; 125 g ai/ha, preemergence): 100% | pest or weed control at 16 g/ha ([5]; Preemergence, 16 g ai/ha): 95% | pest or weed control at 31 g/ha ([6]; 31 g ai/ha, preemergence): 70% | pest or weed control at 62 g/ha ([6]; 62 g ai/ha, preemergence): 80% | pest or weed control at 125 g/ha ([6]; 125 g ai/ha, preemergence): 85% | pest or weed control at 16 g/ha ([6]; Preemergence, 16 g ai/ha): 55% | pest or weed control at 31 g/ha ([7]; 31 g ai/ha, preemergence): 85% | pest or weed control at 62 g/ha ([7]; 62 g ai/ha, preemergence): 85% | pest or weed control at 125 g/ha ([7]; 125 g ai/ha, preemergence): 90% | pest or weed control at 16 g/ha ([7]; Preemergence, 16 g ai/ha): 80% | pest or weed control at 31 g/ha ([8]; 31 g ai/ha, preemergence): 75% | pest or weed control at 62 g/ha ([8]; 62 g ai/ha, preemergence): 80% | pest or weed control at 125 g/ha ([8]; 125 g ai/ha, preemergence): 85% | pest or weed control at 16 g/ha ([8]; Preemergence, 16 g ai/ha): 55% | pest or weed control at 31 g/ha ([9]; 31 g ai/ha, preemergence): 100% | pest or weed control at 62 g/ha ([9]; 62 g ai/ha, preemergence): 100% | pest or weed control at 125 g/ha ([9]; 125 g ai/ha, preemergence): 100% | pest or weed control at 16 g/ha ([9]; Preemergence, 16 g ai/ha): 98% | pest or weed control at 31 g/ha ([10]; 31 g ai/ha, preemergence): 85% | pest or weed control at 62 g/ha ([10]; 62 g ai/ha, preemergence): 85% | pest or weed control at 125 g/ha ([10]; 125 g ai/ha, preemergence): 95% | pest or weed control at 16 g/ha ([10]; Preemergence, 16 g ai/ha): 90% | plant injury at 31 g/ha ([11]; 31 g ai/ha, preemergence): 85% | plant injury at 62 g/ha ([11]; 62 g ai/ha, preemergence): 90% | plant injury at 125 g/ha ([11]; 125 g ai/ha, preemergence): 90% | plant injury at 16 g/ha ([11]; Preemergence, 16 g ai/ha): 70% | pest or weed control at 31 g/ha ([12]; 31 g ai/ha, preemergence): 98% | pest or weed control at 62 g/ha ([12]; 62 g ai/ha, preemergence): 90% | pest or weed control at 125 g/ha ([12]; 125 g ai/ha, preemergence): 98% | pest or weed control at 16 g/ha ([12]; Preemergence, 16 g ai/ha): 75% | pest or weed control at 31 g/ha ([13]; 31 g ai/ha, preemergence): 100% | pest or weed control at 62 g/ha ([13]; 62 g ai/ha, preemergence): 100% | pest or weed control at 125 g/ha ([13]; 125 g ai/ha, preemergence): 100% | pest or weed control at 16 g/ha ([13]; Preemergence, 16 g ai/ha): 100% | pest or weed control at 31 g/ha ([14]; 31 g ai/ha, preemergence): 0% | pest or weed control at 62 g/ha ([14]; 62 g ai/ha, preemergence): 0% | pest or weed control at 125 g/ha ([14]; 125 g ai/ha, preemergence): 40% | pest or weed control at 16 g/ha ([14]; Preemergence, 16 g ai/ha): 0%
